Here are results for 1 compound from patent US20250281499A1, “FUSED AMINO PYRIMIDINE COMPOUNDS FOR TREATMENT OF NEUROPATHIC AND NEURO-INFLAMMATORY PAIN” (Ovid Therapeutics Inc., priority 2024, published 2025).

Assay [1] has as its target T1, NKCC1 (Homo sapiens, UniProt P55011).
T1 construct: expressed in transfected cells; host or cells: HEK-293
T1 sequence (P55011 1-1212): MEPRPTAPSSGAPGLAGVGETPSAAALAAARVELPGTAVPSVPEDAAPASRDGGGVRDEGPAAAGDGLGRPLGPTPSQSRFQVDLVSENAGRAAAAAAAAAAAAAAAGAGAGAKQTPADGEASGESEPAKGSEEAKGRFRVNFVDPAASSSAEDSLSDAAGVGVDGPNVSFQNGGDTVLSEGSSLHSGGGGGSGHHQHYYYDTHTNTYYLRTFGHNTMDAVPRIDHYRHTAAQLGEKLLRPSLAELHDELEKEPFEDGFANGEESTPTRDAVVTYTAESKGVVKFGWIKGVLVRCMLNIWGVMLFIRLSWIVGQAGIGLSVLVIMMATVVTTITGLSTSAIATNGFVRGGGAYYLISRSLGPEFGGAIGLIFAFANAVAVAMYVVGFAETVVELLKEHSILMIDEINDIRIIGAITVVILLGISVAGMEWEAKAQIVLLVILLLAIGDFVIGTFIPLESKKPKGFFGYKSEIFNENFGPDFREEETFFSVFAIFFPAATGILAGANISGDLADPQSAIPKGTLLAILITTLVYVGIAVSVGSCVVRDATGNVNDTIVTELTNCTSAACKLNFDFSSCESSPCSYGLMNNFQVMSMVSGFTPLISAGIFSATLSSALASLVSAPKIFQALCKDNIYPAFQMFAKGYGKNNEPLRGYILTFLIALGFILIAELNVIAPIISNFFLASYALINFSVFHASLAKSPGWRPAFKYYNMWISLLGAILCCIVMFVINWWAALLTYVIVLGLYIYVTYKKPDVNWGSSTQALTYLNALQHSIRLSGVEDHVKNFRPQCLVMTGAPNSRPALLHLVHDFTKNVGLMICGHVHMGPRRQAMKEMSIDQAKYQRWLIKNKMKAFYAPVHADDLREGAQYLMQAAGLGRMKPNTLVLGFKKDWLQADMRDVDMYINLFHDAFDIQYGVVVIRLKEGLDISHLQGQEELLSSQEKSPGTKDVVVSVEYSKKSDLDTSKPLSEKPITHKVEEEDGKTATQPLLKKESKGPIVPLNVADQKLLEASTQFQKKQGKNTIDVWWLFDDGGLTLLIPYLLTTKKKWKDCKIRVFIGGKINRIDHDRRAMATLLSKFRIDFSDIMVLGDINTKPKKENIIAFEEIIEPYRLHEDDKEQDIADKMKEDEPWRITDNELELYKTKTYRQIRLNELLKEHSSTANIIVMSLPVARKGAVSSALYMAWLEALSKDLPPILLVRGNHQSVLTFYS
The assay can be described thus: Tl+ flux assay, HEK-293 cells expressing NKCC1. The format is cell-based. Conditions: read-out: concentration at which effects on NKCC1 were seen (EC50, FIG. 1G). The procedure: (§1) FLIPR TI Flux assay. HEK-293 cells were washed with HBSS, and then incubated with loading buffer containing TI sensitive fluorescent dye (https://www.moleculardevices.com), 20 μM bumetanide 20 μM ouabain and 2.5 mM probenecid for 1 h at room temperature (RT) under control conditions or with drugs in the dark using a FlexStation 3 microplate reader (Molecular Devices) and imaged […] for 30 min. Stimulus buffer was added containing 5 mM K^+/0.5 mM Tl^+ and cells were imaged every 1.5 over a 190 second time course The initial rate Tl^+ uptake (Relative Fluorescence Units (RFU) per second) was determined following addition of the stimulus buffer as outlined previously (Conway et al., 2017, supra) (Lee et al., 2022, supra).
(§2) Several studies have shown that the activity and plasma membrane accumulation of KCC2 is potentiated via phosphorylation of S940, a process mediated by the activity of protein kinase C and protein phosphatase 1 (Lee et al, 2011, supra; Lee et al., J Biol Chem 282, 29777-29784 (2007); Moore et al., Proc. Natl. Acad. Sci. U.S.A 115, 10166-10171 (2018); Moore et al., Trends Neurosci. 40, 555-571 (2017); Silayeva et al., Proc. Natl. Acad. Sci. U.S.A. 112, 3523-3528 (2015)). […] Compared to KCC2, effects on KCC3, KCC4, and NKCC1 were only seen at concentrations more than 35-fold that of KCC2 (>100 μM) (FIG. 1G).

Assay [2] concerns the target T2, KCC3 (Homo sapiens, UniProt Q9UHW9).
T2 construct: expressed in transfected cells; host or cells: HEK-293
T2 sequence (Q9UHW9 1-1150): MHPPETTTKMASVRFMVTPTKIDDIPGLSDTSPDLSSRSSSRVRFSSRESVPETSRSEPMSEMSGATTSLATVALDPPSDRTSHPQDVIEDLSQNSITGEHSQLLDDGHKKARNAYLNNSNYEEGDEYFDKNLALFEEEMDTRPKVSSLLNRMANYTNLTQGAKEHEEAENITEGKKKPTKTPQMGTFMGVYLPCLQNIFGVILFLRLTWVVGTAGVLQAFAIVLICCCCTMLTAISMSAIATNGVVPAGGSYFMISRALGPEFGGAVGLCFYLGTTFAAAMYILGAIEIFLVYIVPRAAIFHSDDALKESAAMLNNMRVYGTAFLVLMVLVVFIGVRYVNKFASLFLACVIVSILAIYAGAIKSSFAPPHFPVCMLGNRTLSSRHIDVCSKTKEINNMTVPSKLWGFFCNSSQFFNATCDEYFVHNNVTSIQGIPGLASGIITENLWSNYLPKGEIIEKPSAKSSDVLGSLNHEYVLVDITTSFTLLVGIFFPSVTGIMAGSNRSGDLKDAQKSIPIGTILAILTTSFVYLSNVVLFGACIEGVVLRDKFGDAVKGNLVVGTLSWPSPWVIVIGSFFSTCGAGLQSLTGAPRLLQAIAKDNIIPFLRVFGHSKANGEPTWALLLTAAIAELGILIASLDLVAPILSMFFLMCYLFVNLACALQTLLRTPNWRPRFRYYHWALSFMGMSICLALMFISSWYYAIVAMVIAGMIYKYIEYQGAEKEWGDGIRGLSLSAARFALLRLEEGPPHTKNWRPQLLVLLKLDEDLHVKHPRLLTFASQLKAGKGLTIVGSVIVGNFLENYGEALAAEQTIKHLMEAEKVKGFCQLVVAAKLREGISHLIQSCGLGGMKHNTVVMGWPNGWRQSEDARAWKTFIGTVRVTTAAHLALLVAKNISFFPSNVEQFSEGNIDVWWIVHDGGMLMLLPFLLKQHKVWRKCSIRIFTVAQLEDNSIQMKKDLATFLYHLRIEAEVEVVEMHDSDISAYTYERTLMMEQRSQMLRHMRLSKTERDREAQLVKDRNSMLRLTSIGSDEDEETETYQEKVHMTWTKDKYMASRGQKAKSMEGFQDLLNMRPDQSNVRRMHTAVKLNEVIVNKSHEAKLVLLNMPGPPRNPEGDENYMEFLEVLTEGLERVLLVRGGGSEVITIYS
The assay can be described thus: Tl+ flux assay, HEK-293 cells expressing KCC3. Type of assay: cell-based. Conditions: read-out: concentration at which effects on KCC3 were seen (EC50, FIG. 1G). The procedure:
as §1, §2

Where only a bound is given, the exact number is not on record here.

Consider `C[C@@H]1CN(c2nc3c(c(Nc4ccc(C5CCCCC5)cc4)n2)COC3)CCO1` [Compound A, (R)—N-(4-cyclohexylphenyl)-2-(2-methylmorpholino)-5,7-dihydrofuro[3,4-d]pyrimidin-4-amine], for which the EC50 in assay [1] and in assay [2] was more than 100 µM each time.
